Experimental data published in patent US9611295B2, “Treatment of IL-17 mediated disease by blocking SEFIR-SEFIR interactions” (THE CLEVELAND CLINIC FOUNDATION, priority 2011, dated 2017).

How the values were obtained:
[1] = tested on: IL-17-dependent signaling; test: IL-17-dependent signaling in MEFs by Western blotting (pIκB, pJNK, pERK, pp38 MAPK); format: cell-based, mouse
Protocol: (§1) FIG. 4 provides data showing that a cell-permeable CC′ loop decoy peptide disrupts the interaction between Act1 and IL-17RA and inhibits IL-17R and IL-25R signaling. FIG. 4A provides sequences of Antennapedia homeodomain (Antp) (SEQ ID NO: 11)and decoy peptides (SEQ ID NOS 23-25 and 17, respectively, in order of appearance) with the Antp sequence underlined. FIG. 4B provides flow cytometry results based on experiments in which MEFs expressing IL-17RB were incubated for 2 or 24 hours with the indicated FITC-tagged peptides (200 μM) and were then analyzed by flow cytometry. […] The percentages of FITC-positive cells in the treated samples are shown. […] FIG. 4D provides Western blot results of experiments in which MEFs expressing IL-17RB were incubated with the indicated peptides (200 μM) for 24 hours after which they were treated with IL-17 or IL-25 and then analyzed by Western blotting with the indicated antibodies. […] The abundances of Cxcl1 and Il13 mRNAs were then measured by real-time RT-PCR. […]
(§2) Decoy peptides are based on surface-exposed regions of the primary sequence of a protein to mimic a putative interaction interface. […] These decoy peptides were also tagged at their C-termini with fluorescein isothiocyanate (FITC) to enable their cell-penetrating efficiency to be evaluated by flow cytometric sanalysis. […]

[2] = tested on: IL-25-mediated expression of Il13; test: IL-25-mediated Il13 mRNA expression in MEFs, real-time RT-PCR; format: cell-based, mouse; settings: peptides 200 μM for 24 hours, then IL-25 for 3 hours
Protocol: as §1, §2

[3] = tested on: IL-25-induced pulmonary inflammation; test: IL-25-induced pulmonary inflammation in BALB/c mice; format: in vivo, mouse
Protocol: FIG. 5 provides bar graph and staining data showing that a cell-permeable CC′ loop decoy peptide inhibits IL-17- and IL-25-induced pulmonary inflammation. Wild-type (WT) female BALB/c mice (n=4 mice per group) were pretreated with DMSO, scrambled peptide, or the CC′ loop decoy peptide for 4 hours, after which they were administered saline, IL-17, or IL-25 intranasally. Mice were sacrificed and analyzed 16 hours after injection with IL-17 or 4 days after injection with IL-25. […] All experiments were performed three times. *P<0.05.
It has been shown that Act1 plays an essential role in IL-17- and IL-25-mediated pulmonary inflammation. Thus, the inventors examined whether the Act1 SEFIR domain CC′ loop decoy peptide ameliorated IL-17- and IL-25-induced airway inflammation in vivo. BALB/c mice were pretreated with scrambled peptide or with the Act1 SEFIR domain CC′ loop decoy peptide for 4 hours, after which we injected the mice intranasally with IL-17 or IL-25. […] Consistently, IL-17-induced lung and airway recruitment of granulocytes was reduced in mice pretreated with the CC′ loop decoy peptide compared to that in mice pretreated with the scrambled peptide (FIG. 5C). The lower grade of pulmonary inflammation in the mice treated with the CC′ loop decoy peptide correlated with the decreased IL-17-dependent expression of genes encoding MCP-1 and GM-CSF in the lung tissues (FIG. 5D). […] IL-25-induced lung and airway recruitment of granulocytes, predominantly eosinophils, as well as mucin production, as determined by Periodic acid-Schiff (PAS) staining, were reduced in mice pretreated with the CC′ loop decoy peptide compared to that in mice pretreated with the scrambled peptide (FIG. 5G). The decreased pulmonary inflammation in […] correlated with decreased expression of genes encoding the TH2-type cytokines IL-5 and IL-13 in the lungs (FIG. 5H).
Intranasal injection of mice with IL-17 and IL-25: Wild-type BALB/c female mice were pretreated with dimethyl sulfoxide (DMSO, the solvent for peptides), scrambled peptide, or the CC′ loop decoy peptide for 4 hours, after which they underwent intranasal administration of saline, IL-17 (4 μg/mouse), or IL-25 (4 μg/mouse). For IL-25-treated mice, decoy peptides were administrated daily through intranasal injection after pretreatment. Mice were anesthetized with isoflurane and sacrificed. BAL fluid was collected 16 hours after injection with IL-17 or 4 days after injection with IL-25. A total of 0.7 ml of HL-1 medium (BioWhittaker®) was used to obtain BAL fluid through trachea with a blunt needle and a 1-ml syringe. Cytospin slide preparations were obtained with a Shandon CytoSpin III Cytocentrifuge (Shandon/Thermo Scientific). Differential leukocyte counts were obtained on cytospin slide preparations after incubation with Diff Quik Giemsa stain. Cytokines in the BAL were analyzed by MultipleX plate (Invitrogen®). H&E and PAS staining were performed on lung tissues after fixation in 10% neutral-buffered formalin and paraffin embedding to detect pulmonary inflammation and for assessment of goblet cell metaplasia and mucin accumulation in airway epithelial cells.

[4] = tested on: IL-17-mediated expression of Cxcl1; test: IL-17-mediated Cxcl1 mRNA expression in MEFs, real-time RT-PCR; format: cell-based, mouse; settings: peptides 200 μM for 24 hours, then IL-17 for 3 hours
Protocol: as §1, §2

## DRQIKIWFQNRRMKWKKLDEDEHGLHTKY [CC′ loop decoy peptide]
[1]; MEFs expressing IL-17RB, peptides 200 μM, 24 hours
  IL-17-dependent signaling (pIκB, pJNK, pERK, pp38 MAPK): partly attenuated
[1]; data not shown
  dose and time dependence of inhibition of IL-17-dependent signaling and gene expression: dose-and time-dependent manner
[2]
  inhibition of IL-25-mediated expression of Il13: ~60 % inhibition
[3]; data not shown
  dose dependence of inhibition of IL-25-induced pulmonary inflammation: dose-dependent manner
[3]; intranasal IL-25, 4 days
  IL-5 in BAL: substantially attenuated
  IL-13 in BAL: substantially attenuated
[3]; intranasal IL-25, 4 days, vs scrambled peptide, listed as Act1 SEFIR domain CC′ loop decoy peptide
  IL-25-induced eosinophilia (eosinophils in BAL): substantially attenuated
[3]; intranasal IL-25, 4 days, vs scrambled peptide, listed as CC′ decoy peptide
  IL-25-induced eosinophilia (eosinophils in BAL): reduced accumulation
[3]; vs scrambled peptide
  IL-25-induced lung and airway recruitment of granulocytes, predominantly eosinophils (H&E): reduced
  mucin production (PAS staining): reduced
[4]
  inhibition of IL-17-mediated expression of Cxcl1: ~50 % inhibition
